Entries after “also recorded” stand apart in the source; their conditions may differ.
Legend:
[1] = system: PGP1a; test: Vanadate-sensitive PGP ATPase activity in PGP membranes; type: biochemical
Description: The test substances were incubated in the membranes and supplemented with MgATP, with and without sodium orthovanadate present. Orthovanadate inhibits PGP by trapping MgADP in the nucleotide binding site. Thus, the ATPase activity measured in the presence of orthovanadate represents non-PGP ATPase activity and was subtracted from the activity generated without orthovanadate to yield vanadate-sensitive ATPase activity.
ATPase assays were conducted in 96-well microtiter plates. A 0.06 ml reaction mixture containing 40 μg PGP membranes, test substance, and 4 mM MgATP, in buffer containing 50 mM Tris-MES, 2 mM EGTA, 50 mM KCl, 2 mM dithiothreitol, and 5 mM sodium azide, plus organic solvent was incubated at 37° C. for 20 minutes. […] Identical reaction mixtures containing 100 μM sodium orthovanadate were assayed in parallel. The reactions were stopped by the addition of 30 μl of 10% SDS+Antifoam A. The incubations were followed with addition of 200 μl of 35 mM Ammonium Molybdate in 15 mM Zinc Acetate:10% Ascorbic Acid (1:4) and incubated for an additional 20 minutes at 37° C. Additionally, 0.06 ml aliquots of potassium phosphate standards prepared in the buffer described above, were incubated in the plates containing the test and control substances, with SDS and detection reagent added. The liberation of inorganic phosphate was detected by its absorbance at 800 nm and quantitated by comparing the absorbance to a phosphate standard curve. The concentration dependence of the PGP was analyzed for evidence of saturation of PGP-ATPase activity, and apparent kinetic parameters were calculated by non-linear regression.

[2] = system: mice; test: Tail flick anti-nociception, naltrexone begun at day 6 in mice dosed daily with morphine (Groups A, B); type: in vivo; conditions: morphine 3 mg/kg daily
Description: 40 male mice were randomized into 5 groups of eight. All mice were administered single 3 mg/kg morphine daily (b.i.d.), beginning on Day 1.
In a second series of experiments, 40 female mice were randomized into 5 groups of eight. All mice were administered single 3 mg/kg morphine daily (b.i.d.), beginning on Day 1.
3 mg/kg of morphine was administered as a single bolus dose to each mouse on group 1 on a daily basis. Mice in Group 2 were also administered 3 mg/kg morphine daily.

[3] = system: mice; test: Tolerance to oxycodone in mice, parallel experiments; type: in vivo
[4] = system: mice; test: Tail flick anti-nociception, naltrexone given with morphine from day 1 (Groups C, D, combined analysis); type: in vivo; set-up: Enhancement of Latency (tail flick) / Enhancement of Latency by Naltrexone (tail flick): unit not given here
Description: In a third series of experiments, 40 male mice were randomized into 5 groups of eight. All mice were administered single 3 mg/kg morphine daily (b.i.d.), beginning on Day 1.
In a final series of experiments, 40 female mice were randomized into 5 groups of eight. All mice were administered single 3 mg/kg morphine daily (b.i.d.), beginning on Day 1.

O=C1CC[C@@]2(O)[C@H]3Cc4ccc(O)c5c4[C@@]2(CCN3CC2CC2)[C@H]1O5 [Naltrexone, naltrexone]
Vanadate-sensitive ATPase Activity ([1]; 100 μM): 4.6 nmol/mg/min
Inhibition of the ATPase associated with PGP1a ([1]; semi-quantitative assay): shown to inhibit
Naltrexone effect on tail flick latency ([2]; female mice, naltrexone 3-3000 ng/kg b.i.d. from day 6, Days 6, 8, 10): significantly different from zero in enhancing latency
Effect on morphine tolerance ([2]; morphine-tolerant mice, naltrexone 3 ng/kg daily from Day 6): broke the tolerance; also recorded: breaks tolerance
Development of tolerance to oxycodone ([3]; female mice, 1 or 5 mg/kg oxycodone with 1 pg/kg, 1 ng/kg or 1 μg/kg naltrexone or 1 pg/kg nor-BNI): None of the mice developed tolerance
Development of tolerance to oxycodone ([3]; male mice, 0.1 mg/kg oxycodone plus 1 ng/kg naltrexone, 1 ng/kg nalmefene or 1 pg/kg nor-BNI): did not develop tolerance
Enhancement of Latency by Naltrexone (tail flick) ([4]; Table 15, combined analysis (title prints Female Mice), Group 2: morphine 3 mg/kg + naltrexone 3 ng/kg b.i.d., Day 1): 12.8
Enhancement of Latency by Naltrexone (tail flick) ([4]; Table 15, combined analysis (title prints Female Mice), Group 2: morphine 3 mg/kg + naltrexone 3 ng/kg b.i.d., Day 3): 9.3
Enhancement of Latency by Naltrexone (tail flick) ([4]; Table 15, combined analysis (title prints Female Mice), Group 2: morphine 3 mg/kg + naltrexone 3 ng/kg b.i.d., Day 5): 5.9
Enhancement of Latency by Naltrexone (tail flick) ([4]; Table 15, combined analysis (title prints Female Mice), Group 2: morphine 3 mg/kg + naltrexone 3 ng/kg b.i.d., Day 8): 5.8
Enhancement of Latency by Naltrexone (tail flick) ([4]; Table 15, combined analysis (title prints Female Mice), Group 2: morphine 3 mg/kg + naltrexone 3 ng/kg b.i.d., Day 10): 3.5
Enhancement of Latency by Naltrexone (tail flick) ([4]; Table 15, combined analysis (title prints Female Mice), Group 3: morphine 3 mg/kg + naltrexone 30 ng/kg b.i.d., Day 1): 12.4
Enhancement of Latency by Naltrexone (tail flick) ([4]; Table 15, combined analysis (title prints Female Mice), Group 3: morphine 3 mg/kg + naltrexone 30 ng/kg b.i.d., Day 3): 10.0
Enhancement of Latency by Naltrexone (tail flick) ([4]; Table 15, combined analysis (title prints Female Mice), Group 3: morphine 3 mg/kg + naltrexone 30 ng/kg b.i.d., Day 5): 7.2
Enhancement of Latency by Naltrexone (tail flick) ([4]; Table 15, combined analysis (title prints Female Mice), Group 3: morphine 3 mg/kg + naltrexone 30 ng/kg b.i.d., Day 8): 4.9
Enhancement of Latency by Naltrexone (tail flick) ([4]; Table 15, combined analysis (title prints Female Mice), Group 3: morphine 3 mg/kg + naltrexone 30 ng/kg b.i.d., Day 10): 6.6
Enhancement of Latency by Naltrexone (tail flick) ([4]; Table 15, combined analysis (title prints Female Mice), Group 4: morphine 3 mg/kg + naltrexone 300 ng/kg b.i.d., Day 1): 15.6
Enhancement of Latency by Naltrexone (tail flick) ([4]; Table 15, combined analysis (title prints Female Mice), Group 4: morphine 3 mg/kg + naltrexone 300 ng/kg b.i.d., Day 3): 12.7
Enhancement of Latency by Naltrexone (tail flick) ([4]; Table 15, combined analysis (title prints Female Mice), Group 4: morphine 3 mg/kg + naltrexone 300 ng/kg b.i.d., Day 5): 6.8
Enhancement of Latency by Naltrexone (tail flick) ([4]; Table 15, combined analysis (title prints Female Mice), Group 4: morphine 3 mg/kg + naltrexone 300 ng/kg b.i.d., Day 8): 4.8
Enhancement of Latency by Naltrexone (tail flick) ([4]; Table 15, combined analysis (title prints Female Mice), Group 4: morphine 3 mg/kg + naltrexone 300 ng/kg b.i.d., Day 10): 6.0
Enhancement of Latency by Naltrexone (tail flick) ([4]; Table 15, combined analysis (title prints Female Mice), Group 5: morphine 3 mg/kg + naltrexone 3000 ng/kg b.i.d., Day 1): 12.9
Enhancement of Latency by Naltrexone (tail flick) ([4]; Table 15, combined analysis (title prints Female Mice), Group 5: morphine 3 mg/kg + naltrexone 3000 ng/kg b.i.d., Day 3): 11.3
Enhancement of Latency by Naltrexone (tail flick) ([4]; Table 15, combined analysis (title prints Female Mice), Group 5: morphine 3 mg/kg + naltrexone 3000 ng/kg b.i.d., Day 5): 7.7
Enhancement of Latency by Naltrexone (tail flick) ([4]; Table 15, combined analysis (title prints Female Mice), Group 5: morphine 3 mg/kg + naltrexone 3000 ng/kg b.i.d., Day 8): 6.2
Enhancement of Latency by Naltrexone (tail flick) ([4]; Table 15, combined analysis (title prints Female Mice), Group 5: morphine 3 mg/kg + naltrexone 3000 ng/kg b.i.d., Day 10): 7.0
Enhancement of Latency by Naltrexone (tail flick) ([4]; female mice, Group 2: morphine 3 mg/kg + naltrexone 3 ng/kg b.i.d. from day 1, Day 1): 12.2
Enhancement of Latency by Naltrexone (tail flick) ([4]; female mice, Group 2: morphine 3 mg/kg + naltrexone 3 ng/kg b.i.d. from day 1, Day 3): 11.0
Enhancement of Latency by Naltrexone (tail flick) ([4]; female mice, Group 2: morphine 3 mg/kg + naltrexone 3 ng/kg b.i.d. from day 1, Day 5): 4.3
Enhancement of Latency by Naltrexone (tail flick) ([4]; female mice, Group 2: morphine 3 mg/kg + naltrexone 3 ng/kg b.i.d. from day 1, Day 7): 6.1
Enhancement of Latency by Naltrexone (tail flick) ([4]; female mice, Group 2: morphine 3 mg/kg + naltrexone 3 ng/kg b.i.d. from day 1, Day 10): 4.4
Enhancement of Latency by Naltrexone (tail flick) ([4]; female mice, Group 2: morphine 3 mg/kg + naltrexone 3 ng/kg b.i.d. from day 1, Day 11, single bolus 10 μg/kg naltrexone in addition): −1.0
Enhancement of Latency by Naltrexone (tail flick) ([4]; female mice, Group 3: morphine 3 mg/kg + naltrexone 30 ng/kg b.i.d. from day 1, Day 1): 12.4
Enhancement of Latency by Naltrexone (tail flick) ([4]; female mice, Group 3: morphine 3 mg/kg + naltrexone 30 ng/kg b.i.d. from day 1, Day 3): 10.7
Enhancement of Latency by Naltrexone (tail flick) ([4]; female mice, Group 3: morphine 3 mg/kg + naltrexone 30 ng/kg b.i.d. from day 1, Day 5): 6.9
Enhancement of Latency by Naltrexone (tail flick) ([4]; female mice, Group 3: morphine 3 mg/kg + naltrexone 30 ng/kg b.i.d. from day 1, Day 7): 2.4
Enhancement of Latency by Naltrexone (tail flick) ([4]; female mice, Group 3: morphine 3 mg/kg + naltrexone 30 ng/kg b.i.d. from day 1, Day 10): 9.3
Enhancement of Latency by Naltrexone (tail flick) ([4]; female mice, Group 3: morphine 3 mg/kg + naltrexone 30 ng/kg b.i.d. from day 1, Day 11, single bolus 10 μg/kg naltrexone in addition): −0.7
Enhancement of Latency by Naltrexone (tail flick) ([4]; female mice, Group 4: morphine 3 mg/kg + naltrexone 300 ng/kg b.i.d. from day 1, Day 1): 15.0

Reference: patent US7034036B2, “Inhibitors of ABC drug transporters at the blood-brain barrier” (Pain Therapeutics, Inc., priority 2000, dated 2006)
